# Assay results: paper PMC7866232, “New Substituted 5-Benzylideno-2-Adamantylthiazol[3,2-b][1,2,4]Triazol-6(5H)ones as Possible Anti-Inflammatory Agents” (Molecules, 2021)
# Experiments:
# [1] = system: carrageenin-induced mouse paw edema; assay: Carrageenin-induced mouse paw edema (CPE), in vivo anti-inflammatory activity; conditions: for inhibition in vivo at 10 µmol/kg: Mus musculus, ip, mice, 0.01 mmol/kg body weight intraperitoneally, given simultaneously with carrageenin (2%, 0.05 mL); for increased anti-inflammatory activity compared to indomethacin: carrageenin paw edema, relative to indomethacin
# Procedure: The in vivo anti-inflammatory effect of the tested compounds was assessed by using the functional model of carrageenin-induced mouse paw edema and is presented as the percentage of inhibition of induction of edema at the right hind paw (Table 1).
# Edema was measured by weight increase of the right hind paw in comparison to the […] left paw.
# Twenty-five thiazolo[3,2-b]1,2,4-triazole derivatives, previously synthesized were evaluated for their anti-inflammatory activity, in vivo using groups of 6–10 mice of R’’’ strain.
# The anti-inflammatory activity of the compounds synthesized was studied with the Carragenin-Induced Paw Edema acute inflammation test using an aqueous carrageenin solution (2%, 0,05 mL), [14] which was injected intradermally in the footpad of the right hind limb muscle (mice R’’’ groups of 6–10 animals), whereas the left end serves as a reference. In the experimental procedure both sex male mice were used, excluding pregnant. Animals were fasted during the time of the experiment. The tested compounds (0.01 mmol/kg body weight), were suspended in water, with few drops of Tween 80 and ground in a mortar before use and were given intraperitoneally simultaneously with the carrageenin injection.
# ovine COX-1 = biological target: T1, ovine COX-1 (Ovis aries, UniProt P05979); assay: COX inhibitor screening assay in vitro, COX-1; assay type: biochemical; conditions: for inhibition at 200 µM: 0.1 μM arachidonic acid, read-out: COX-1 (%) inhibition
# T1 construct: purchased Cayman Chemical Co., Ann Arbor, MI, USA
# T1 sequence (P05979 25-600): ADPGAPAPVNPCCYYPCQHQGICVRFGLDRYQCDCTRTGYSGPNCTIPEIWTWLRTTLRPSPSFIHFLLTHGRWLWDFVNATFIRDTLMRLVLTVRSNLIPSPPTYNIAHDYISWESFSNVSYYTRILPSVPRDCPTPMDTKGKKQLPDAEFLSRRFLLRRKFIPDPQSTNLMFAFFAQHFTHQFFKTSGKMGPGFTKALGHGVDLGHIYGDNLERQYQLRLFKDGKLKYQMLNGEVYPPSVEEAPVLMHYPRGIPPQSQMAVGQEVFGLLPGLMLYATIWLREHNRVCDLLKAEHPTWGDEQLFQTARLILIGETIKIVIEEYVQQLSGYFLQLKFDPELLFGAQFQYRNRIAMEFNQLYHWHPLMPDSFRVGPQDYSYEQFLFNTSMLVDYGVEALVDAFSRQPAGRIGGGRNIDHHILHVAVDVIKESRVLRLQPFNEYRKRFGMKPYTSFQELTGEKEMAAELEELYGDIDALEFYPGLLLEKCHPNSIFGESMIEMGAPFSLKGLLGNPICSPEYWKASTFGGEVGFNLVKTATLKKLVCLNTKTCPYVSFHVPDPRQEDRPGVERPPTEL
# Procedure: (§1) The COX-1 and COX-2 activities of the compounds were measured using ovine COX-1 and human recombinant COX-2 enzymes included in the “COX I inhibitor Screening Assay” kit provided by Cayman (Cayman Chemical Co., Ann Arbor, MI, USA). The assay directly measures PGF2 a produced by SnCl2 reduction of COX-derived PGH2. The prostanoid production was quantified via enzyme immunoassay using a broadly specific antibody that binds to all the major prostaglandin compounds. […]
# soybean lipoxygenase = biological target: T2, soybean lipoxygenase (Glycine max, UniProt P08170); assay: Soybean lipoxygenase inhibition in vitro; assay type: biochemical; conditions: 0.1 mM sodium linoleate, 234 nm
# T2 sequence (P08170 1-839): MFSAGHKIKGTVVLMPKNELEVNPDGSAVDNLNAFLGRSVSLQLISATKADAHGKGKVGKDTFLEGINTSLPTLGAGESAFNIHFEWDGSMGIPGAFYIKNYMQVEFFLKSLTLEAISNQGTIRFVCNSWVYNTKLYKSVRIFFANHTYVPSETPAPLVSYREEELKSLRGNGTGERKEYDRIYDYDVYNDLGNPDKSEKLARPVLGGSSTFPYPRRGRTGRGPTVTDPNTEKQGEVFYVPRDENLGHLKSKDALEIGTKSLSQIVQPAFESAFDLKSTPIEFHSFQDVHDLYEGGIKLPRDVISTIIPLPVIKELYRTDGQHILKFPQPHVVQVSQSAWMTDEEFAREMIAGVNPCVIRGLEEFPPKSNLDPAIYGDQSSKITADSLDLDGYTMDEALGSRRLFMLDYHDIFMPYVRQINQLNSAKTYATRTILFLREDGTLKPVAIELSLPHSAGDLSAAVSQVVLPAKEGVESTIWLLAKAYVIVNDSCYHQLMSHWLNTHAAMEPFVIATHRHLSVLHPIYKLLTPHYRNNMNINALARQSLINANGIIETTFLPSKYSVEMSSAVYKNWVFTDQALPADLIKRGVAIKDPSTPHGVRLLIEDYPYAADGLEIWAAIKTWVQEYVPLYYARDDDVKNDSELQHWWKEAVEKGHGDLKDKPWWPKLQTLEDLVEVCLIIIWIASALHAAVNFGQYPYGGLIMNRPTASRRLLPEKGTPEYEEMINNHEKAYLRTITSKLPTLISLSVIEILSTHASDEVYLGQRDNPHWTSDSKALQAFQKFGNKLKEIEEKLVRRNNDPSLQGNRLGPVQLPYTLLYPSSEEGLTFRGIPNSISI
# Procedure: The compounds tested were dissolved in DMSO and preincubated for 4 min at 28 °C in the presence of 753 U/mL 5-soybean lipoxygenase (5-LOX). The enzyme reaction was triggered by addition of a final concentration of 0.1 mM sodium linoleate. The conversion of sodium linoleate 13-hydrouperoxylinoleic acid was measured at 234 nm. Absorbance was measured at time 0 and 3 min.
# human recombinant COX-2 = biological target: T3, human recombinant COX-2 (Homo sapiens, UniProt P35354); assay: COX inhibitor screening assay in vitro, COX-2; assay type: biochemical; conditions: for inhibition at 200 µM: read-out: COX-2 (%) inhibition
# T3 construct: purchased Cayman Chemical Co., Ann Arbor, MI, USA
# T3 sequence (P35354 18-604): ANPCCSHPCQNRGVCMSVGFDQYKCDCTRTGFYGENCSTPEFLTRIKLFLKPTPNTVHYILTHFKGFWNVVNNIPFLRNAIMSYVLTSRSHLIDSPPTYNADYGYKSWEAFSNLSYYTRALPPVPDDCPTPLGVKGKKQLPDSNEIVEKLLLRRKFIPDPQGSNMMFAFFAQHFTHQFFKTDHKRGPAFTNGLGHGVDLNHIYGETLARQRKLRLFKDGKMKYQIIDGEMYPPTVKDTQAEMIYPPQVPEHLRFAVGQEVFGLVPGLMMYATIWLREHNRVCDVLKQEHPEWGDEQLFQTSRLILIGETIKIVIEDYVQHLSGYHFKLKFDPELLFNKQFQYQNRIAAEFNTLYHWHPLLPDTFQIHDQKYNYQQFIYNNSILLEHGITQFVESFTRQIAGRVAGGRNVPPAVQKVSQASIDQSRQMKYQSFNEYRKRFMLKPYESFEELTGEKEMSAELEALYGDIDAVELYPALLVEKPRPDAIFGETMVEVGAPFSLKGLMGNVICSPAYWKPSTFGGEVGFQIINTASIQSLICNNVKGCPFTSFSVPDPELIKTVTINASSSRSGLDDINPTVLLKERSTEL
# Procedure: as §1
# [2] = at 200 μM, 0.1 μM arachidonic acid
SMILES,inhibition in vivo at 10 µmol/kg [1],inhibition at 200 µM (ovine COX-1),LOX (%) inhibition (soybean lipoxygenase),inhibition at 200 µM (human recombinant COX-2; [2]),also measured
O=c1/c(=C/c2ccccc2)sc2nc(C34CC5CC(CC(C5)C3)C4)nn12 [Compound 1],40 to 49%,,,,
O=c1/c(=C/c2cccc(O)c2)sc2nc(C34CC5CC(CC(C5)C3)C4)nn12 [Compound 2],36%,18%,5.82%,64%,IC50 (human recombinant COX-2): > 50 µM
O=c1/c(=C/c2ccc(O)cc2)sc2nc(C34CC5CC(CC(C5)C3)C4)nn12 [Compound 3],37%,93%,28.58%,25%,COX-1 IC50 fold lower than that of naproxen (ovine COX-1): 30 fold; IC50 (ovine COX-1): 1.28 µM
O=c1/c(=C/c2ccc(O)cc2O)sc2nc(C34CC5CC(CC(C5)C3)C4)nn12 [Compound 4],40 to 49%,,,,
COc1cccc(/C=c2\sc3nc(C45CC6CC(CC(C6)C4)C5)nn3c2=O)c1O [Compound 5],51 to 67%,,,,increased anti-inflammatory activity compared to indomethacin [1]: 23%
COc1cc(/C=c2\sc3nc(C45CC6CC(CC(C6)C4)C5)nn3c2=O)ccc1O [Compound 6],40 to 49%,26.2%,6.67%,66%,IC50 (human recombinant COX-2): > 50 µM
COc1cc(/C=c2\sc3nc(C45CC6CC(CC(C6)C4)C5)nn3c2=O)cc(OC)c1O [Compound 7],36%,22%,16.13%,25%,
COc1ccc(/C=c2\sc3nc(C45CC6CC(CC(C6)C4)C5)nn3c2=O)cc1 [Compound 8],51 to 67%,60.5%,5.72%,0%,IC50 (ovine COX-1): 41.9 µM; COX-2 (%) inhibition (human recombinant COX-2; [2]): completely inactive; increased anti-inflammatory activity compared to indomethacin [1]: 32%
COc1ccc(/C=c2\sc3nc(C45CC6CC(CC(C6)C4)C5)nn3c2=O)cc1OC [Compound 9],40 to 49%,,,,
COc1cc(/C=c2\sc3nc(C45CC6CC(CC(C6)C4)C5)nn3c2=O)cc(OC)c1OC [Compound 10],40 to 49%,,,,
CN(C)c1ccc(/C=c2\sc3nc(C45CC6CC(CC(C6)C4)C5)nn3c2=O)cc1 [Compound 11],51 to 67%,,,,
O=c1/c(=C/c2ccccc2[N+](=O)[O-])sc2nc(C34CC5CC(CC(C5)C3)C4)nn12 [Compound 12],40 to 49%,,,,
O=c1/c(=C/c2cccc([N+](=O)[O-])c2)sc2nc(C34CC5CC(CC(C5)C3)C4)nn12 [Compound 13],15%,,,,
